Assay [1] concerns the target T1, PTP1B (human, recombinant) (Homo sapiens, UniProt P18031).
T1 construct: purchased ATGen Co., Ltd. (Gyeonggi-do, Korea)
T1 sequence (P18031 1-435): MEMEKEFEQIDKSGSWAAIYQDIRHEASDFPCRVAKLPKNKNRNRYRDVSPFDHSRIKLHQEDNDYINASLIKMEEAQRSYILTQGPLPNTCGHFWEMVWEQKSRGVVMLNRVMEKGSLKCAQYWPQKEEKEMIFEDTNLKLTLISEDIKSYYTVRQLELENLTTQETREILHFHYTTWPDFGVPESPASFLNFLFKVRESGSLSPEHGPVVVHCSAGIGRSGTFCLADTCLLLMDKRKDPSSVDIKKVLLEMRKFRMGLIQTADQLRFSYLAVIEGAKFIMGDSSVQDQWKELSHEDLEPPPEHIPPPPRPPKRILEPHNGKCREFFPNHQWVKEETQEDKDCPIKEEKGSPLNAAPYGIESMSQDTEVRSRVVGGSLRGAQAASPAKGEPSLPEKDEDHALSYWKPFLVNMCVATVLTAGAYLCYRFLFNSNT
The assay can be described thus: PTP1B inhibitory activity assay (p-NPP hydrolysis). The conditions noted are these: 1 mM p-NPP substrate, pH 6.0, 37.5 °C, 30 min; mean ± SD of triplicate experiments; read-out: PTP1B Inhibitory Effects (IC50 Values). The class given is biochemical. Here is the method:
On the basis of these findings, we evaluated the inhibitory effects of the 16 isolated compounds on PTP1B activity. PTP1B enzyme (human, recombinant) was purchased from ATGen Co., Ltd. (Gyeonggi-do, Korea), and its activity was measured using p-nitrophenyl phosphate (p-NPP). The reaction mixture consisted of 50 mM Bis-Tris (pH 6.0), 2.0 mM EDTA, 5.0 mM dithiothreitol (DTT), PTP1B (0.04 μg), and 1.0 mM p-NPP, with or without test compounds. After incubation at 37.5 °C for 30 min, the reaction was stopped via the addition of 10 N NaOH. The production of p-nitrophenol (p-NP) was evaluated by measuring the absorbance at 405 nm. The non-enzymatic hydrolysis of 1.0 mM p-NPP was corrected by measuring the increase in absorbance at 405 nm in the absence of PTP1B enzyme.
PTP1B (human, recombinant) was purchased from ATGen Co., Ltd. (Gyeonggi-do, Korea). The enzyme activity was measured in a reaction mixture containing 1 mM p-NPP in 50 mM Bis-Tris (pH 6.0), 2.0 mM EDTA, and 5.0 mM dithiothreitol (DTT). The reaction mixture was placed in a 37.5 °C for 30 min, followed by termination of the reaction with the addition of 10 N NaOH. The amount of p-NP produced was estimated by measuring the increase in absorbance at 405 nm. The non-enzymatic hydrolysis of 1.0 mM p-NPP was corrected by measuring the increase in absorbance at 405 nm obtained in the absence of PTP1B enzyme. Inhibition kinetics studies were performed in the presence or absence of compounds 1 and 13 with different concentrations of p-NPP. Data were fitted by nonlinear regression analysis according to a Michaelis-Menten kinetic model using GraphPad Prism 5.01.

Assay [2] has as its target T1, PTP1B (human, recombinant). The assay is described as follows: Enzyme kinetic study of PTP1B inhibition (Lineweaver-Burk plots). The conditions noted are these: Lineweaver-Burk plots: reduction in Vmax, no change in Km. Format: biochemical. The protocol:
To elucidate the characteristics of PTP1B inhibition by the prenylated xanthones and flavonoids, compounds 1 and 13 were selected for an enzyme kinetic study. The kinetic studies were conducted using different concentrations of compounds 1, 13, and p-NPP. The initial rate was determined on the basis of the rate of increase in absorbance at 405 nm. The Michaelis–Menten constant (Km) and maximal velocity (Vmax) of PTP1B were determined by Lineweaver–Burk Plot analysis for competitive inhibition and the intercept on the vertical axis for noncompetitive inhibition. […]
Figure 2 Lineweaver-Burk plots for inhibition of PTP1B-catalyzed hydrolysis of p-NPP by compounds 1 (A) and 13 (B). Data are expressed as mean initial velocity for triplicate experiments (n = 3) at each substrate concentration.
PTP1B (human, recombinant) was purchased from ATGen Co., Ltd. (Gyeonggi-do, Korea). The enzyme activity was measured in a reaction mixture containing 1 mM p-NPP in 50 mM Bis-Tris (pH 6.0), 2.0 mM EDTA, and 5.0 mM dithiothreitol (DTT). […] The amount of p-NP produced was estimated by measuring the increase in absorbance at 405 nm. The non-enzymatic hydrolysis of 1.0 mM p-NPP was corrected by measuring the increase in absorbance at 405 nm obtained in the absence of PTP1B enzyme. […]

A word on the IC50: it is the concentration needed to halve the response being measured. In the case of `C=CC(C)(C)c1c2c(c3oc4cc(O)c(O)cc4c(=O)c3c1O)C=CC(C)(C)O2` [Compound 1, cudratricusxanthone N], in assay [1], the IC50 is 2 ± 0.4 µM. Further, the “Mode of PTP1B inhibition” value in assay [2] is “noncompetitive”.
As to `C=CC(C)(C)c1c(OC)cc2oc3cc(O)c(O)cc3c(=O)c2c1O` [Compound 2, 1,6,7-trihydroxy-2-(1,1-dimethyl-2-propenyl)-3-methoxyxanthone], the IC50 in assay [1] worked out at 3 ± 0.6 µM.
Same read-out and setting: then `C=CC(C)(C)c1c(O)cc(O)c2c(=O)c3cc(O)c(O)cc3oc12` [Compound 3, cudratricusxanthone L], with 3 ± 0.3 µM.
Same read-out and setting: the value for `C=CC(C)(C)c1c(O)cc(O)c2c(=O)c3c(CC=C(C)C)c(O)c(O)cc3oc12` [Compound 4, cudratricusxanthone A] was 4.3 ± 0.6 µM; that for `C=CC(C)(C)c1c(O)cc2oc3c(CC=C(C)C)c(O)c(O)cc3c(=O)c2c1O` [Compound 5, cudraxanthone L] was 4.6 ± 0.8 µM.
For the compound `C=CC(C)(C)c1c(O)c(CC=C(C)C)c2oc3cc(O)c(O)cc3c(=O)c2c1O` [Compound 6, macluraxanthone B], in assay [1], the IC50 was 3.8 ± 0.5 µM.
Regarding `C=CC(C)(C)c1c(OC)c(CC=C(C)C)c2oc3cc(O)c(O)cc3c(=O)c2c1O` [Compound 7, cudracuspixanthone A], in assay [1], the IC50 amounted to 1.9 ± 0.4 µM.
For the compound `CC(C)=CCc1c2c(c(O)c3c(=O)c4cc(O)c(O)cc4oc13)C(C)(C)C(C)O2` (stereo not drawn) [Compound 8], the IC50 in assay [1] turned out to be 2.8 ± 0.6 µM.
For the compound `CC(C)=CCc1c(O)c(O)cc2c(=O)c3c(O)c4c(cc3oc12)OC(C)C4(C)C` (stereo not drawn) [Compound 9, cudraxanthone M], the IC50 in assay [1] amounted to 3.5 ± 0.7 µM.
With `CC(C)=CCc1cc([C@@H]2CC(=O)c3c(cc(O)c(CC=C(C)C)c3O)O2)c(O)cc1O` [Compound 13, cudraflavanone D], the IC50 in assay [1] was 5.7 ± 1.5 µM. Further, the “Mode of PTP1B inhibition” value in assay [2] is recorded as “noncompetitive”.
As for `CC(C)=CCc1c(O)cc2c(c1O)C(=O)C[C@@H](c1cc3c(cc1O)OC(C)(C)C=C3)O2` [Compound 14, euchrestaflavanone C], the half-maximal inhibitory concentration (IC50) in assay [1] stood at 12.3 ± 2.2 µM.
In the case of `CC(C)=CCc1c(O)cc2oc(-c3ccc(O)cc3O)c(CC=C(C)C)c(=O)c2c1O` [Compound 15, cudraflavone C], the IC50 in assay [1] worked out at 9.4 ± 2.9 µM.
As to `CC(C)=CCc1c(-c2ccc(O)cc2O)oc2c(CC=C(C)C)c(O)cc(O)c2c1=O` [Compound 16, kuwanon C], the IC50 in assay [1] turned out to be 13.6 ± 3.3 µM.

For the origin of these results see article PMC6272669, “Protein Tyrosine Phosphatase 1B Inhibitors from the Roots of Cudrania tricuspidata” (Molecules, 2015).
